From ChEMBL document CHEMBL4627407, “Identification of a Potent Oridonin Analogue for Treatment of Triple-Negative Breast Cancer” (J Med Chem, 2020)
The source made the active and inactive calls. The calls are words filed in the database; no cut-off is given here.

Tests used:
HCC1806 [1] = assay: Induction of apoptosis in human HCC1806 cells assessed as viable cells at 50 uM after 48 hrs by Annexin V-FITC/propidium iodide double staining based flow cytometry (reference value: 95.7%); format: functional; conditions: HCC1806, 48 h, read-out: Activity
MDA-MB-231 = assay: Antiproliferative activity against human MDA-MB-231 cells after 72 hrs by MTT assay; format: functional, cell-based; conditions: MDA-MB-231, 72 h
HCC1806 [2] = assay: Induction of apoptosis in human HCC1806 cells assessed as increase in Bax expression at 50 to 200 nM after 48 hrs by Western blot analysis; format: functional, cell-based
HCC1806 [3] = assay: Antitumor activity against human HCC1806 cells harboring luciferase gene xenografted in ICR mouse assessed as shrunken tumor tissue at 12.5 to 25 mg/kg, iv administered once daily for 21 consecutive days and measured once every week; format: functional, organism-based
HCC1806 [4] = assay: Antitumor activity against human HCC1806 cells in ICR mouse assessed as increase in apoptosis in tumor at 12.5 to 25 mg/kg, iv administered once per day for 23 consecutive days by TUNEL based immunohistochemical analysis; format: functional, organism-based

In the case of `C=C1C(=O)[C@@]23C(=O)[C@@H]4OC[C@]5(C=CCC(C)(C)[C@@H]45)[C@@H]2CC[C@@H]1[C@H]3OC(=O)/C=C/c1ccncc1`, the viability at 50 µM (HCC1806 [1]) is reported as 82.2%, the IC50 (MDA-MB-231) is reported as 630 nM and the Activity (HCC1806 [2]) is reported as “Active”. For the same compound, the Activity (HCC1806 [3]) was “Active” and the Activity (HCC1806 [4]) was “Active”.
